Nine compounds from ChEMBL document CHEMBL1130713, “Development of 2,2-dimethylchromanol cysteinyl LT1 receptor antagonists” (Bioorg Med Chem Lett, 1998) can be followed below.

The nature of data set [1]: Half-life was evaluated in plasma of rat. Format: ADME, organism-based.
The test system of data set [2] is Cavia porcellus. The experiment in a line: Compound was tested for its ability to block antigen induced airway obstruction in guinea pig at dose 1 mg/kg at 1 hr. Format: functional.
In data set [3] the target is T1, Cysteinyl leukotriene receptor 1 (Cavia porcellus, UniProt Q2NNR5).
T1 sequence (Q2NNR5 whole entry): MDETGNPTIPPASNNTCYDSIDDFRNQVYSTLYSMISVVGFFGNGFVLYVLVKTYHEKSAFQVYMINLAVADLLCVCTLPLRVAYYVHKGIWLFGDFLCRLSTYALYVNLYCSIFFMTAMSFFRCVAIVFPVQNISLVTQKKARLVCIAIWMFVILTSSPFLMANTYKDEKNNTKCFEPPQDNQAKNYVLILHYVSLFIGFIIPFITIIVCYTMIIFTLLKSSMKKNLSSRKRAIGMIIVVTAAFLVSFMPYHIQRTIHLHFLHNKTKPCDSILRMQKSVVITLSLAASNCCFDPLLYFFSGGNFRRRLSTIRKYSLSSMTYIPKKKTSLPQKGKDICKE
The experiment in a line: Antagonism of Cysteinyl leukotriene receptor 1 from guinea pig lung membranes. Format: functional, tissue-based.

A further data set has as its system Rattus norvegicus. The experiment in a line: Hepatic clearance after intravenous administration was evaluated in rat. Format: ADME, organism-based, Liver. Particulars: in vivo.
A short description of data set [4]: Volume of distribution after intravenous administration was evaluated in rat. Format: ADME, organism-based. Particulars: in vivo, read-out: Vdss.
The species entered for a further data set is Homo sapiens. The experiment in a line: Compound was tested for its ability to inhibit calcium influx in human U937 cells. Format: functional, cell-based. Particulars: U-937.
Data set [5] relates to Cavia porcellus. The experiment in a line: Compound was tested for its ability to block antigen induced airway obstruction in guinea pig at dose 1 mg/kg at 2 hr. Format: functional.

One may read the half-life as how long it takes for the measured level to halve. Read a low half-life as fast loss. Usually inhibition in vivo stands for the share of the control response that was lost under treatment. Lower therefore signals a response near the control. As usually defined, the Ki is the dissociation constant of the complex between target and ligand, obtained from inhibition or displacement. A higher Ki goes with lower affinity. In general, IC50 refers to the midpoint of a concentration-inhibition curve.

`COc1ccc(NS(=O)(=O)C(F)(F)F)cc1C[C@H]1[C@@H](O)c2cc(OCc3ccc4ccc(Cl)cc4n3)ccc2OC1(C)C` showed a half-life in data set [1] of 3.6 h. Moreover, in the data set with Cavia porcellus [2], the inhibition in vivo at 1 mg/kg came out at 57.9%. In data set [3], this compound yielded a Ki of 4 nM. Besides, the Clp with Rattus norvegicus stood at 6.7 mL/min/kg. For the same compound, the Vd in data set [4] was 1.6 L/kg. For the same compound, the 50% inhibitory concentration (IC50) in the data set listed under Homo sapiens came to 0.5 nM.
In data set [3], `CC1(C)Oc2ccc(OCc3nc4cc(F)c(F)cc4s3)cc2[C@H](O)[C@@H]1Cc1cc(NS(=O)(=O)C(F)(F)F)ccc1Cl` yielded a Ki of 4 nM. Further, the IC50 in the data set filed under Homo sapiens worked out at 17 nM.
In the data set on Cavia porcellus [2], `O=C(Nc1cccc2c(=O)cc(-c3nnn[nH]3)oc12)c1ccc(OCCCCc2ccccc2)cc1` yielded an inhibition in vivo at 1 mg/kg of 50.1%. The IC50 in the data set filed under Homo sapiens turned out to be 1 nM.
With `C[C@H]1Oc2ccc(OCc3nc4cc(F)ccc4s3)cc2[C@H](O)[C@@H]1Cc1cccc(NS(=O)(=O)C(F)(F)F)c1`, at 1 mg/kg the inhibition in vivo in the data set on Cavia porcellus [2] was 66.5%. Moreover, the IC50 in the data set filed under Homo sapiens came out at 8 nM.
Take `CC1(C)Oc2ccc(OCc3nc4cc(F)c(F)cc4s3)cc2[C@H](O)[C@@H]1Cc1cccc(NS(=O)(=O)C(F)(F)F)c1`: in data set [3], the affinity corresponds to a Ki of 7 nM. In addition, the IC50 in the data set filed under Homo sapiens is 2 nM. This compound registered an inhibition in vivo at 1 mg/kg with Cavia porcellus [5] of 45.8%.
The like results for `COc1ccc(NS(=O)(=O)C(F)(F)F)cc1C[C@H]1[C@@H](O)c2cc(/C=C/c3ccc4ccc(Cl)cc4n3)ccc2OC1(C)C` were, in that order, 5 nM, 0.2 nM and 40.8%.
In data set [1], `COc1ccc(NS(=O)(=O)C(F)(F)F)cc1C[C@H]1[C@@H](O)c2cc(OCc3nc4cc(F)c(F)cc4s3)ccc2OC1(C)C` had a half-life of 3.9 h. In data set [3], the affinity corresponds to a Ki of 2 nM. The Clp with Rattus norvegicus worked out at 16 mL/min/kg. Moreover, the Vd in data set [4] is 3.8 L/kg. The concentration for half-maximal inhibition (IC50) in the data set listed under Homo sapiens came out at 0.3 nM. The same compound returned an inhibition in vivo at 1 mg/kg with Cavia porcellus [5] of 37.8%.
Regarding `O=C(O)c1cccc(C[C@@H]2COc3ccc(OCc4nc5cc(F)ccc5s4)cc3[C@@H]2O)c1`, the half-life in data set [1] was 1.3 h. In data set [3], this compound gave a Ki of 14 nM. Besides, in the data set with Rattus norvegicus, the Clp is 3.3 mL/min/kg. Besides, the Vd in data set [4] came out at 0.4 L/kg. Moreover, the IC50 in the data set filed under Homo sapiens was determined as 310 nM. Moreover, in the data set with Cavia porcellus [5], 1 mg/kg produced 56% inhibition in vivo.
With `COc1cc(C(=O)NS(=O)(=O)c2ccccc2C)ccc1Cc1cn(C)c2ccc(NC(=O)OC3CCCC3)cc12` [ZAFIRLUKAST], the half-maximal inhibitory concentration (IC50) in the data set listed under Homo sapiens was found to be 1 nM. This compound came in with an inhibition in vivo at 1 mg/kg in the data set with Cavia porcellus [5] of 51.6%.
